Measured values published in BindingDB's records for doi:10.1016/j.bmcl.2017.07.010 (De Montfort University, 2017).

Experiment: Inhibition of human CYP1B1 transfected in HEK293 cells assessed as cisplatin EC50 at 6 times IC50 by MTT assay (Rvb = 65 uM)

Row | EC50 [µM] | SMILES
1 | 10 | COc1ccccc1/C=C/C(=O)c1ccc[nH]1
2 | 10 | O=C(/C=C/c1ccccc1Cl)c1ccc[nH]1
